What is called IC50 is the point on the concentration scale where inhibition reaches its midpoint.

Like-named read-outs stand apart in the source and are kept apart here.

Common to all, as to type: cell-based
For one assay, the target named is T1, human androgen receptor (Homo sapiens, UniProt P10275).
T1 construct: expressed in transfected cells; host or cells: COS-7 cells (ATCC)
T1 sequence (P10275 1-920): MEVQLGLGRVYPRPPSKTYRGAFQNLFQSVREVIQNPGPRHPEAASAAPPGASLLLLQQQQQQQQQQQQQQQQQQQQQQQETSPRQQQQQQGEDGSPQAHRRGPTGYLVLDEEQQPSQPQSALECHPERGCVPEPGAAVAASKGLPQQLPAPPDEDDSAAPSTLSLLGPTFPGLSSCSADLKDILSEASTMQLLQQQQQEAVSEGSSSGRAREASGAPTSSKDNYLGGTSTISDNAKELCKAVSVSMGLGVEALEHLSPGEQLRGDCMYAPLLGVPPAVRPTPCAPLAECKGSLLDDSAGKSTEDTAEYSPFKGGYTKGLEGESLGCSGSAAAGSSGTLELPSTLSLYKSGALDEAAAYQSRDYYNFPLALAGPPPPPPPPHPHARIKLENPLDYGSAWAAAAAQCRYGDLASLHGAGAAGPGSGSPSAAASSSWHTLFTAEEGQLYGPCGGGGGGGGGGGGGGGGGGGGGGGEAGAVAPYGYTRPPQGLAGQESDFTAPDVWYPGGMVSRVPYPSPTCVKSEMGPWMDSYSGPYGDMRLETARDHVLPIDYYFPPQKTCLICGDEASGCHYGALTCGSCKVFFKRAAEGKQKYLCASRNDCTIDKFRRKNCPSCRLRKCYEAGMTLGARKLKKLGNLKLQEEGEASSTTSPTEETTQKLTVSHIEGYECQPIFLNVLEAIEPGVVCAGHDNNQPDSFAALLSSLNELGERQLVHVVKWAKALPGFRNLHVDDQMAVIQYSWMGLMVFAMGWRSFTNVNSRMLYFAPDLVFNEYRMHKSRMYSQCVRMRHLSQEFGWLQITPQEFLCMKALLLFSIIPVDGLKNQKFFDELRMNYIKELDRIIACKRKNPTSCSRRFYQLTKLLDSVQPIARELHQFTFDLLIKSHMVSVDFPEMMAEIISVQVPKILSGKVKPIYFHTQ
The assay is described as follows: Antagonist activity for AR: MMTV-luc reporter transcription in COS-7 cells transfected with human AR, stimulated with DHT. As for the experimental part: Antagonist activity for AR was evaluated according to the following method. COS-7 cells (ATCC) were transfected with pMMTV-luc vector (reporter plasmid having, as an androgen response element, […] long terminal repeat) and pEX-hAR vector (human androgen receptor expression vector: which expresses human AR gene under control of CMV promoter) by using Nucleofector (registered trademark) Kit R (Lonza) as a transfection reagent and Amaxa (Lonza). The COS-7 cells obtained after transfection were seeded in a clear bottom 96 well microplate (BD) at 1.5×10^4/well with phenol red free RPMI1640 containing 10% charcoal-treated fetal bovine serum (hereinbelow, DCC-FBS) (hereinbelow, the medium is referred to as an evaluation medium), and then cultured overnight. […] Then, the transcription activity value of the reporter plasmid was measured. The transcription activity was measured by using Bright-Glo™ Luciferase Assay System (Promega).

Assay [1] deals with AR positive human prostate cancer cells VCaP. Nature of the assay: Agonist activity for AR: cell proliferation rate of VCaP cells. Conditions: 5-10000 nmol/L, 72 hours, relative to evaluation medium only, more than 10% = agonist activity. As for the experimental part:
Then, the number of viable cells was measured (test group). As a control, the cells were cultured after being added with the evaluation medium only, and the number of viable cells was measured (control group). The number of viable cells was measured by using CellTiter-Glo™ Luminescent Cell Viability Assay (Promega). From the measured number of viable cells, cell proliferation rate with respect to the compound of Examples or the compound of Comparative Examples was calculated based on the number of viable cells measured in the case of using the evaluation medium only. Cell proliferation rate (%)=(Number of viable cells in test group−Number of viable cells in control group)/(Number of viable cells in control group)×100
By considering an error in the number of viable cells measured in the case of using the evaluation medium only, when the cell proliferation rate was more than 10% at any concentration of the 8 concentrations which had been evaluated, it was determined to have an agonist activity for AR.

Assay [2] has as its system Human prostate cancer cells LNCaP. Nature of the assay: Inhibitory activity on androgen-dependent proliferation of prostate cancer cells. Conditions: 1 nmol/L DHT, 72 hours, Cell Counting Kit-8, read-out: Proliferation inhibition concentration GI50 value. As for the experimental part: Human prostate cancer cells LNCaP (Non-Patent Literature 5) having […] androgen receptor gene were seeded in a clear bottom 96 well microplate (BD) at 4.0×10^3/well with phenol red free RPMI1640 containing 5% DCC-FBS (hereinbelow, the medium is referred to as an evaluation medium), and then cultured overnight. […] Then, the number of viable cells was measured. The number of viable cells was measured by using Cell Counting Kit-8 (DOJINDO LABORATORIES).
On the technique in general: Tetrazolium assays rely on reduction of a dye to a coloured formazan, in cell work by metabolically active cells.

A further assay deals with AR expression in LNCaP. Nature of the assay: Activity of reducing expression level of androgen receptor (Western blotting in LNCaP). Conditions: Homo sapiens, read-out: AR expression reducing activity. As for the experimental part:
AR positive human prostate cancer cells LNCaP were seeded in a 6 well microplate (BD) at 3.5×10^5/well with RPMI1640 containing 5% FBS (hereinbelow, the medium is referred to as an evaluation medium), and then cultured overnight. […] After culture for 48 hours, the medium was removed and the cells were washed with PBS and added with 0.1 mL of Lysis buffer (M-PER added with Protease Inhibitor Cocktail), followed by keeping at 4° C. for 20 minutes. After cell lysis, the cell solution was centrifuged to recover the supernatant as cell lysate. […] The antibody-reacting band (anti AR receptor) was quantified by LAS Imaging System (FUJIFILM) using Super Signal West Dura Substrate (Thermo Scientific) as a detection reagent.
When the AR expression reducing activity is 50% or more, it is described as “reduced”.
(In general: In western blotting, separated proteins are transferred to a membrane and probed.)

[3] abbreviates: COS-7 cells with pMMTV-luc and pEX-hAR, 1 nmol/L DHT, 24 hours, read-out: AR antagonist IC50.

With `N#Cc1ccc(N2CCc3c(ncnc3Nc3ccc(OCCCN4CCNCC4)c(C(F)(F)F)c3)C2)cc1Cl` [Example 38, 2-chloro-4-(4-((4-(3-(piperazin-1-yl)propoxy)-3-(trifluoromethyl)phenyl)amino)-5,6-dihydropyrido[3,4-d]pyrimidin-7(8H)-yl)benzonitrile], the IC50 at human androgen receptor amounted to 950 nM. Also, the “Cell proliferation rate (%)” value in assay [1] was −1.3%. Moreover, the GI50 in assay [2] is 120 nM.
Take `CC(C)(C)OC(=O)NCCNC(=O)c1ccc(Nc2ncnc3c2CCN(c2ccc(C#N)c(C(F)(F)F)c2)C3)nn1` [Example 8, tert-butyl (2-(6-((7-(4-cyano-3-(trifluoromethyl)phenyl)-5,6,7,8-tetrahydropyrido[3,4-d]pyrimidin-4-yl)amino)pyridazine-3-carboxamido)ethyl)carbamate]: on human androgen receptor, it took 59 nM to reach half-maximal inhibition (IC50). Also, the “Cell proliferation rate (%)” value in assay [1] is reported as 5.3%. Further, the GI50 in assay [2] turned out to be 1100 nM. In addition, the inhibition at 10 µM in the assay with AR expression in LNCaP (48 h) was greater than 50%.
In the same order, the values of `CC(C)(O)c1ccc(Nc2ncnc3c2CCN(c2ccc([N+](=O)[O-])c(C(F)(F)F)c2)C3)nc1` [Example 14, 2-(6-((7-(4-nitro-3-(trifluoromethyl)phenyl)-5,6,7,8-tetrahydropyrido[3,4-d]pyrimidin-4-yl)amino)pyridin-3-yl)propan-2-ol] are 70 nM, 1.4%, 1200 nM and greater than 50%.
Compound `CNC(=O)c1ccc(Nc2ncnc3c2CCN(c2ccc(C#N)c(C(F)(F)F)c2)C3)nc1F` [Example 3, 6-((7-(4-cyano-3-(trifluoromethyl)phenyl)-5,6,7,8-tetrahydropyrido[3,4-d]pyrimidin-4-yl)amino)-2-fluoro-N-methylnicotinamide] registered an IC50 against human androgen receptor of 31 nM. The “Cell proliferation rate (%)” value in assay [1] came out at 8.9%. The GI50 in assay [2] was 360 nM. The inhibition at 10 µM in the assay with AR expression in LNCaP (48 h) was greater than 50%.
In turn, `COc1ccc(Nc2nc(C#N)nc3c2CCN(c2ccc(C#N)c(C(F)(F)F)c2)C3)cc1` [Example 47, 7-(4-Cyano-3-(trifluoromethyl)phenyl)-4-((4-methoxyphenyl)amino)-5,6,7,8-tetrahydropyrido[3,4-d]pyrimidine-2-carbonitrile] registered an IC50 against human androgen receptor of 700 nM. Further, the “Cell proliferation rate (%)” value in assay [1] is −1.7%. The GI50 in assay [2] came out at 450 nM. For the same compound, the inhibition at 10 µM in the assay on AR expression in LNCaP (48 h) was greater than 50%.
In the case of `COc1ccc(Nc2ncnc3c2CCN(c2ccc(C#N)c(C(F)(F)F)c2)C3)cc1OC` [Example 26, 4-(4-((3,4-Dimethoxyphenyl)amino)-5,6-dihydropyrido[3,4-d]pyrimidin-7(8H)-yl)-2-(trifluoromethyl)benzonitrile], the IC50 on human androgen receptor amounted to 1100 nM. In addition, in assay [1], the “Cell proliferation rate (%)” value came to 4.5%. For the same compound, the GI50 in assay [2] was determined as 1200 nM. Besides, the inhibition at 10 µM with AR expression in LNCaP (48 h) is greater than 50%.
In the same order, the values of `CC(=O)N1CCN(CCCOc2ccc(Nc3ncnc4c3CCN(c3ccc(C#N)c(Cl)c3)C4)cc2Cl)CC1` [Example 42, 4-(4-((4-(3-(4-Acetylpiperazin-1-yl)propoxy)-3-chlorophenyl)amino)-5,6-dihydropyrido[3,4-d]pyrimidin-7(8H)-yl)-2-chlorobenzonitrile] are 560 nM, 5.1%, 1300 nM and greater than 50%.
Regarding `CC(C)(O)c1ccc(Nc2ncnc3c2CCN(c2ccc([N+](=O)[O-])c(Cl)c2F)C3)nc1` [Example 18, 2-(6-((7-(3-chloro-2-fluoro-4-nitrophenyl)-5,6,7,8-tetrahydropyrido[3,4-d]pyrimidin-4-yl)amino)pyridin-3-yl)propan-2-ol], on human androgen receptor (setting [3]), the half-inhibitory concentration (IC50) amounted to 1000 nM. The “Cell proliferation rate (%)” value in assay [1] came to 9.5%.
As for `CCNC(=O)c1ccc(Nc2ncnc3c2CCN(c2ccc(C#N)c(C(F)(F)F)c2)C3)nn1` [Example 10, 6-((7-(4-cyano-3-(trifluoromethyl)phenyl)-5,6,7,8-tetrahydropyrido[3,4-d]pyrimidin-4-yl)amino)-N-ethylpyridazine-3-carboxamide], the IC50 against human androgen receptor stood at 7 nM. For the same compound, the GI50 in assay [2] amounted to 400 nM. Also, the inhibition at 10 µM in the assay with AR expression in LNCaP (48 h) is greater than 50%.
Take `N#Cc1ccc(N2CCc3c(ncnc3Nc3ccc(C4(O)COC4)c(F)n3)C2)cc1Cl` [Example 35, 2-Chloro-4-(4-((6-fluoro-5-(3-hydroxyoxetan-3-yl)pyridin-2-yl)amino)-5,6-dihydropyrido[3,4-d]pyrimidin-7(8H)-yl)benzonitrile]: at human androgen receptor (setting [3]), the half-maximal inhibitory concentration (IC50) turned out to be 120 nM. Further, the “Cell proliferation rate (%)” value in assay [1] turned out to be 9.4%. The inhibition at 10 µM in the assay with AR expression in LNCaP (48 h) is greater than 50%.
As to `COc1cc(N2CCc3c(ncnc3Nc3ccc(C(C)(C)O)cn3)C2)ccc1[N+](=O)[O-]` [Example 15, 2-(6-((7-(3-methoxy-4-nitrophenyl)-5,6,7,8-tetrahydropyrido[3,4-d]pyrimidin-4-yl)amino)pyridin-3-yl)propan-2-ol], the IC50 at human androgen receptor (setting [3]) worked out at 260 nM. Besides, in assay [1], the “Cell proliferation rate (%)” value is recorded as 7.7%. For the same compound, the GI50 in assay [2] stood at 3000 nM.
As to `CNC(=O)c1ccc(Nc2ncnc3c2CCN(c2ccc(C#N)c(Cl)c2)C3)nc1F` [Example 2, 6-((7-(3-chloro-4-cyanophenyl)-5,6,7,8-tetrahydropyrido[3,4-d]pyrimidin-4-yl)amino)-2-fluoro-N-methylnicotinamide], at human androgen receptor, the half-maximal inhibitory concentration (IC50) worked out at 33 nM. Also, in assay [2], the GI50 was found to be 290 nM. Also, in the assay on AR expression in LNCaP (48 h), the inhibition at 10 µM was greater than 50%.
With `CC(O)(CS(=O)(=O)c1ccc(F)cc1)C(=O)Nc1ccc(C#N)c(C(F)(F)F)c1` (centres unmarked) [Bicalutamide, reference compound], in assay [1], the “Cell proliferation rate (%)” value was determined as 36%. In addition, in assay [2], the GI50 is 2300 nM. In addition, in the assay with AR expression in LNCaP (48 h), the inhibition at 10 µM is less than 10%.
As for `Cc1cc(N2CCc3c(ncnc3Nc3ccc(C(C)(C)O)cn3)C2)ccc1C#N` [Example 20, 4-(4-((5-(2-hydroxypropan-2-yl)pyridin-2-yl)amino)-5,6-dihydropyrido[3,4-d]pyrimidin-7(8H)-yl)-2-methylbenzonitrile], the IC50 at human androgen receptor (setting [3]) turned out to be 480 nM. The “Cell proliferation rate (%)” value in assay [1] was −0.89%. In addition, the inhibition at 10 µM with AR expression in LNCaP (10000 nmol/L, 48 hours, vs evaluation medium control) was greater than 50%.

The record behind these values is US10370372B2, “Fused pyrimidine compound or salt thereof” (TAIHO PHARMACEUTICAL CO., LTD., priority 2015, dated 2019).
